Laboratory results reported in patent US8343979B2, “Use of alkanoyl L-carnitine for the treatment of erectile dysfunction” (Sigma-Tau Industrie Farmaceutiche Riunite S.p.A., priority 2001, dated 2013).

Experiments:
[1] = tested on: erectile dysfunction, diabetics or nondiabetics patients; test: preliminary experimental data on propionyl L-carnitine in erectile dysfunction; type: in vivo, human; conditions: not previously treated with sildenafil
[2] = tested on: diabetics patients suffering from E.D.; test: clinical trial of propionyl L-carnitine plus sildenafil in sildenafil non-responders (dynamic colour Doppler ultrasonography, IIEF); type: in vivo, human; conditions: 2 g/day propionyl L-carnitine orally daily in combination with 50 mg sildenafil orally twice a week; diabetic E.D. patients not responder to sildenafil alone; after 3 and 6 months
Description: In this trial, 24 diabetics patients suffering from E.D. which were not responder to the treatment with sildenafil alone were enrolled.
2 g/day (1 g tablet twice a day) of propionyl L-carnitine were orally administered daily to the patients, and 50 mg sildenafil orally, twice a week.
In this trial, 30 diabetics patients suffering from E.D. which were not responder to the treatment with sildenafil alone were enrolled.
2 g/day (1 g tablet twice a day) of propionyl L-carnitine, were orally administered daily to the patients, and 50 mg sildenafil orally, twice a week.

Compound: CCC(=O)O[C@H](CC(=O)[O-])C[N+](C)(C)C [propionyl L-carnitine]
- usefulness for treating the erectile dysfunction [1]: useful for treating the erectile dysfunction
- arterial flux by dynamic colour Doppler ultrasonography [2]: improvement of the arterial flux
- satisfactory clinical response evaluated with IIEF, share of treated patients [2]: 60%
